How the values were obtained:
[1] = molecular target: T1, adenosine A1 receptor (Rattus norvegicus, UniProt P25099); assay: Adenosine Receptor Binding - A1 Receptor Affinity (RBA1); settings: [3H]-CHA, rat whole brain membranes; read-out: RBA-1
T1 construct: Whole brain minus cerebellum and brainstem from male Long Evans rats (150-200 g) was homogenized; from tissue; host or cells: rat whole brain minus cerebellum and brainstem, membrane homogenate
T1 sequence (P25099 1-326): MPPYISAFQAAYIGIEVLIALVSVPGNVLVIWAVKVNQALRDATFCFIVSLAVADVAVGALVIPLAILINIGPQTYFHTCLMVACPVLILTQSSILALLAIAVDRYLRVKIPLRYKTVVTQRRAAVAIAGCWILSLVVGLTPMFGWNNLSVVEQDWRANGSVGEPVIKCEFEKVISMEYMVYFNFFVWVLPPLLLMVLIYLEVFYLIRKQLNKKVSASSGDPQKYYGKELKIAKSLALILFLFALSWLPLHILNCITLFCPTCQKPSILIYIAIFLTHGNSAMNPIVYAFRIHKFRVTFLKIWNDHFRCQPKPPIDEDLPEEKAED
Description: Adenosine Receptor Binding - A1 Receptor Affinity (RBA1)
Whole brain minus cerebellum and brainstem from male Long Evans rats (150-200 g) was homogenized in 30 volumes of ice-cold 0.05 M Tris-HCI buffer pH 7.7 using a Brinkman Polytron PT-10 (setting number 6 for 20 seconds) and centrifuged for ten minutes at 20,000 x g (Sorvall RC-2), 4°C. The supernatant was discarded, and the pellet was resuspended and centrifuged as before. The pellet was resuspended in 20 ml Tris-HCI buffer containing two International Units/ml of adenosine deaminase (Sigma type III from calf intestinal mucosa), incubated at 37°C for 30 minutes, then subsequently at 0°C for ten minutes. The homogenate was again centrifuged, and the final pellet was resuspended in ice-cold 0.05 M Tris-HCI buffer pH 7.7 to a concentration of 20 mg/ml original wet tissue weight and used immediately.
Tissue homogenate (10 mg/ml) was incubated in 0.05 M Tris-HCI buffer pH 7.7 containing 1.0 nM [^3H]-N^6-cyclohexyladenosine (^3H]-CHA) with or without test agents in triplicate for one hour at 25°C. Incubation volume was 2 ml. Unbound [^3H]-CHA was separated by rapid filtration under reduced pressure through Whatman glass fiber (GF/B) filters. The filters were rinsed three times with 5 ml of ice cold 0.05 M Tris-HCI buffer pH 7.7. The radio-labeled ligand retained on the filter was measured by liquid scintillation spectrophotometry after shaking the filters for one hour or longer on a mechanical shaker in 10 ml of Beckman Ready Solv HP scintillation cocktail.
Nonspecific binding was defined as the binding which occurred in the presence of 1 mM thophylline. […] The Scatchard plot was calculated by linear regression of the line obtained by plotting the amount of radioligand bound (pmoles/gram of tissue) versus [formula] Since the amount of radioligand bound was a small fraction of the total amount added, free radioligand was defined as the concentration (nM) of radioligand added to the incubation mixture. The Hill coefficient was calculated by linear regression of the line obtained by plotting the log of the bound radioligand vs the log of the [formula] The maximal number of binding sites (Bmax) was calculated from the Scatchard plot.

[2] = system: conscious rat; assay: Antihypertensive evaluation (AHP3): direct monitoring of aortic blood pressure and heart rate; type: in vivo
From the text: This test procedure is described in the following paragraphs. A Method for the Direct Monitoring of Aortic Blood Pressure and Heart Rate from Conscious Rats The continuous monitoring of pulsatile blood pressure (BP) from unrestrained conscious rats surgically equipped with polyethylene cannulas was accomplished by means of a computer assisted data capture scheme (CADCS). The basic elements of the methodology are the cannulation procedure and the CADCS. Cannulation Procedure: Rats were anesthetized with Telazol (1:1 tiletamine HCI and zolazepam HCI); 20-40 mg/kg IM and the descending aorta exposed via a midline incision. Cannulas fabricated from polyethylene tubing were inserted into the aorta via an undersized puncture hole below the renal arteries. […] The cannulas, consisting of a PE100 (0.86 mm ID) body and a PE50 (0.58 mm ID) tip, were attached to a trocar, inserted through the psoas muscle, and passed subcutaneously along the midline of the back and externalized between the ears. The cannulas were anchored to the posas muscle and between the scaluale (3-0 green braided suture). The midline incision was closed in two steps (muscle first, skin second) using continuous over-and over sutures (4-0 chronic). Each rat was then given penicillin 30,000 units subcutaneously (Penicillin G Procaine Sterile Suspension). The rats were fitted with a harness-spring-swivel assembly designed to protect the cannula and to provide the rat relative freedom of movement. […] While on test, each rat received a continuous slow infusion of heparinized saline solution (approximately 400 I or 40 units of heparin per 24 hour period) to prevent clot formation. […] The data were first stored on the data concentrator disk and then transferred to a magnetic tape for analysis and report generation by the main research computer. The overall scheme involved modulating the primary signal from the pressure transducer, generating the primary data set of the one-minute values for systolic, diastolic, and mean blood pressures and heart rate by the in-lab microcomputer and the storage, analysis, and report generation by the main research computer. The transducers were connected to analog signal conditioning mocules. The modules provided a regulated excitation voltage for the transducers, amplification as required to interface the microprocessors and an active low pass filter to compensate for the pressure wave form distortion produced by the flexible, fluid filled, narrow cannula. […] The microcomputer controlled the sequential acqusition of data from the modular interface units through an internal synchronous time-of-day clock/time base generator. […] The microcomputer processed each blood pressure sample as it was received to produce "running average" values for heart rate, and mean, systolic and diastolic blood pressures.

| IC50 [1] | Compound | further results |
| --- | --- | --- |
| 0.019 µM | CC1CCc2ccccc2C1Nc1ncnc2c1ncn2[C@@H]1O[C@H](CO)[C@@H](O)[C@H]1O (stereo partly shown) [Example 4, N^6-[1-(2-Methyl)-tetralinyl]-adenosine] | – |
| 8.22 µM | CC(=O)Oc1ccccc1C(=O)OC[C@H]1O[C@@H](n2cnc3c(NC4CCCc5ccccc54)ncnc32)[C@H](O)[C@@H]1O (stereo partly shown) [Example 14, N^6-(1-tetralinyl)-5'-O-(O-acetylsalicoyl)adenosine] | – |
| 0.021 µM | COc1ccc2c(c1)C(Nc1ncnc3c1ncn3[C@@H]1O[C@H](CO)[C@@H](O)[C@H]1O)CCC2 (single isomer, unassigned) [Example 8] | – |
| 0.04 µM | COc1ccc2c(c1)C(Nc1ncnc3c1ncn3[C@@H]1O[C@H](CO)[C@@H](O)[C@H]1O)CCC2 (single isomer, unassigned) [Example 5, N6-[1-(7-Methoxy)-tetralinyl]-adenosine] | change in HR (Heart Rate) ([2]; 3 mg/kg, Hour 1, conscious rat): 0% |
| 0.713 µM | OC[C@H]1O[C@@H](n2cnc3c(NCC4=CCCCc5ccccc54)ncnc32)[C@H](O)[C@@H]1O [Example 26, N^6-(1-benzocycloheptenyl)methyladenosine] | – |
| 0.208 µM | OC[C@H]1O[C@@H](n2cnc3c(NCC4CCCCc5ccccc54)ncnc32)[C@H](O)[C@@H]1O (stereo partly shown) [Example 28, N^6-(1-benzocycloheptyl)methyladenosine] | – |
| 0.12 µM | OC[C@H]1O[C@@H](n2cnc3c(NCC4(O)CCc5ccccc54)ncnc32)[C@H](O)[C@@H]1O (stereo partly shown) [Example 25, N^6-[2,3-dihydro-1-hydroxy-1H-inden-1-yl]methyladenosine] | – |
| 0.159 µM | OC[C@H]1O[C@@H](n2cnc3c(NCC4=CCCc5ccccc54)ncnc32)[C@H](O)[C@@H]1O [Example 24, N^6-[3,4-dihydro-1-naphthalenyl]methyladenosine] | – |
| 0.059 µM | OC[C@H]1O[C@@H](n2cnc3c(NC4CCCc5ccccc54)ncnc32)C(O)[C@@H]1O (stereo in doubt) [Example 1, (R,S)-N^6-[1-Tetralinyl]-adenosine] | change in HR (Heart Rate) ([2]; 10 mg/kg, Hour 9, conscious rat): 0% |
| 0.126 µM | COc1ccc2c(c1)CCCC2Nc1ncnc2c1ncn2[C@@H]1O[C@H](CO)[C@@H](O)[C@H]1O (stereo partly shown) [Example 6, N^6-[1-(6-Methoxy)-tetralinyl]-adenosine] | – |
| 0.019 µM | COc1cccc2c1CCC[C@@H]2Nc1ncnc2c1ncn2[C@@H]1O[C@H](CO)[C@@H](O)[C@H]1O [Example 10, (S)-N^6-[5-methoxy-1-aminotetralin]-adenosine] | – |
| 0.036 µM | OC[C@H]1O[C@@H](n2cnc3c(NC4CCCc5c(O)cccc54)ncnc32)[C@H](O)[C@@H]1O (stereo partly shown) [Example 16, N^6-[1-(5-hydroxy)-tetralinyl]-adenosine] | change in HR (Heart Rate) ([2]; 3 mg/kg, Hour 9, conscious rat): 0% |
| 0.044 µM | OC[C@H]1O[C@@H](n2cnc3c(NC4CCCc5ccccc54)ncnc32)[C@H](O)[C@@H]1O (stereo partly drawn) [Example 2, (R)-N^6-[1-Tetralinyl]-adenosine] | – |
| 0.108 µM | OC[C@H]1O[C@@H](n2cnc3c(NCC4(O)CCCc5ccccc54)ncnc32)[C@H](O)[C@@H]1O (stereo partly shown) [Example 23, N^6-[1-hydroxy-1-tetralinyl]methyl adenosine] | – |
| 0.403 µM | OC[C@H]1O[C@H](n2cnc3c(NC4CCCc5ccccc54)ncnc32)[C@H](O)[C@@H]1O (stereo partly drawn) [Example 3, (S)-N^6-[1-Tetralinyl]-adenosine] | change in HR (Heart Rate) ([2]; 10 mg/kg, Hour 5, conscious rat): 0% |
| 0.5 µM | CC(=O)OC[C@H]1O[C@@H](n2cnc3c(NC4CCCc5ccccc54)ncnc32)[C@H](O)[C@@H]1O (stereo partly shown) [Example 15, N^6-(1-tetralinyl)-5'-acetyl-adenosine] | – |
| 0.445 µM | OC[C@H]1O[C@@H](n2cnc3c(NCC4(O)CCCCc5ccccc54)ncnc32)[C@H](O)[C@@H]1O (stereo partly shown) [Example 27, N^6-(1-hydroxy-1-benzocycloheptyl]methyladenosine] | – |
| 0.057 µM | OC[C@H]1O[C@@H](n2cnc3c(NCC4=CCc5ccccc54)ncnc32)[C@H](O)[C@@H]1O [Example 22, N^6-[1H-inden-3-yl]methyladenosine] | – |
| 0.02 µM | Cc1cc(C)c2c(c1)C(Nc1ncnc3c1ncn3[C@@H]1O[C@H](CO)[C@@H](O)[C@H]1O)CCC2 (stereo partly shown) [Example 18, N^6-[1-(5,7-dimethyl)-tetralinya]-adenosine] | – |
| 0.071 µM | OC[C@H]1O[C@@H](n2cnc3c(NC4CCCc5ccc(O)cc54)ncnc32)[C@H](O)[C@@H]1O (stereo partly shown) [Example 17] | – |
| 4.55 µM | COc1ccc2c(c1)C(Nc1ncnc3c1ncn3[C@H]1O[C@H](CO)[C@@H](O)[C@H]1O)CCC2 (stereo partly drawn) [Example 9, (S)-N^6-(7-methoxy-1-tetralinyl)-adenosine] | change in MAP (Mean Arterial Pressure) ([2]; 3 mg/kg, Hour 5, conscious rat): 9% |
| 0.042 µM | COc1cccc2c1CCCC2Nc1ncnc2c1ncn2[C@@H]1O[C@H](CO)[C@@H](O)[C@H]1O (stereo partly shown) [Example 7, N^6-[5-Methoxy-1-aminotetralin]-adenosine] | – |

| Compound | IC50 [1] | further results |
| --- | --- | --- |
| OC[C@H]1O[C@@H](n2cnc3c(NCC4CCc5ccccc54)ncnc32)[C@H](O)[C@@H]1O (stereo partly shown) [Example 21, N^6-[2,3-dihydro-1H-inden-1-yl]methyladenosine] | 0.009 µM | – |
